Data from patent EP0486702A1, “PHENYL 4-GUANIDINOBENZOATE DERIVATIVE, PROCESS FOR PRODUCING THE SAME, AND PROTEASE INHIBITOR CONTAINING THE SAME” (Asahi Kasei Kogyo Kabushiki Kaisha, priority 1990, dated 1991).
Where a name gives a salt, the structure may show the parent alone. Read-outs that look alike come from different tables or passages of the source.

Experiments:
trypsin = biological target: T1, trypsin (Bos taurus, UniProt P00760); test: in vitro trypsin inhibition, fluorogenic substrate benzoyl-Arg-7-amido-4-methylcoumalin; format: biochemical; settings: 0.2 M Tris-HCl, 0.02 M CaCl2, 0.005% Triton X-100, pH 8.0, 25°C, 60 minutes
T1 sequence (P00760 24-246): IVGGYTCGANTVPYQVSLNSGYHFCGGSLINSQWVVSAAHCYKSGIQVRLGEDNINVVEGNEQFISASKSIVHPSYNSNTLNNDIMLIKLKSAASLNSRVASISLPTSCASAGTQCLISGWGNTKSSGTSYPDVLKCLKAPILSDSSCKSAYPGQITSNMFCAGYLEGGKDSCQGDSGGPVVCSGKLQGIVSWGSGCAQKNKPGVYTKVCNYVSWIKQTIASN
Text: (§1) The method disclosed in JP-A-2-101017 was slightly modified and used for the measurement of the function of typical compounds belonging to the compound (I) of the present invention (Compounds 39, 3, 2, 26, 31 and 10) in terms of their in vitro activities to inhibit trypsin, thrombin, plasmin, factor Xa and elastase.
(§2) Substrate used for the enzyme reaction were: benzoyl-Arg-7-amido-4-methylcoumalin for trypsin, Boc-Val-Pro-Arg-7-amido-4-methylcoumalin for thrombin, Boc-Val-Leu-Lys-7-amido-4-methylcoumalin for plasmin, Boc-Ile-Glu-Gly-Arg-7-amido-4-methylcoumalin for factor Xa and methoxysuccinyl-Ala-Ala-Pro-Val-7-amido-4-methylcoumalin for elastase. […] Each enzyme reaction was carried out in 0.2 M Tris-HCl buffer supplemented with 0.02 M CaCl₂ and 0.005% Triton X-100 at pH 8.0 for trypsin, thrombin, plasmin and factor Xa or at pH 7.2 for elastase. Each sample solution to be measured was mixed with each enzyme solution and the reaction mixture was incubated at 25°C for 60 minutes in the case of trypsin or for 20 minutes in other cases of enzymes. In this instance, a compound disclosed in JP-A-51-138642 was used as a Comparative Example 1, and a compound disclosed in JP-A-63-165357 as a Comparative Example 2.

plasmin = plasmin (Homo sapiens, UniProt P00747); test: in vitro plasmin inhibition, substrate Boc-Val-Leu-Lys-7-amido-4-methylcoumalin; format: biochemical
Chain of plasmin (P00747 581-810 limits assumed, species assumed): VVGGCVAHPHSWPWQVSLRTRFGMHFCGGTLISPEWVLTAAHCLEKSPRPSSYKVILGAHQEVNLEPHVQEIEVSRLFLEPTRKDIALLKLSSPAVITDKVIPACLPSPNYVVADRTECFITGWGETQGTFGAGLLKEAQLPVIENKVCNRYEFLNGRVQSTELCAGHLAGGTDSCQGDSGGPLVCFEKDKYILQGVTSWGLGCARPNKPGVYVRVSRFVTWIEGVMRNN
Chain of plasmin (P00747 97-580 partner limits assumed, species assumed): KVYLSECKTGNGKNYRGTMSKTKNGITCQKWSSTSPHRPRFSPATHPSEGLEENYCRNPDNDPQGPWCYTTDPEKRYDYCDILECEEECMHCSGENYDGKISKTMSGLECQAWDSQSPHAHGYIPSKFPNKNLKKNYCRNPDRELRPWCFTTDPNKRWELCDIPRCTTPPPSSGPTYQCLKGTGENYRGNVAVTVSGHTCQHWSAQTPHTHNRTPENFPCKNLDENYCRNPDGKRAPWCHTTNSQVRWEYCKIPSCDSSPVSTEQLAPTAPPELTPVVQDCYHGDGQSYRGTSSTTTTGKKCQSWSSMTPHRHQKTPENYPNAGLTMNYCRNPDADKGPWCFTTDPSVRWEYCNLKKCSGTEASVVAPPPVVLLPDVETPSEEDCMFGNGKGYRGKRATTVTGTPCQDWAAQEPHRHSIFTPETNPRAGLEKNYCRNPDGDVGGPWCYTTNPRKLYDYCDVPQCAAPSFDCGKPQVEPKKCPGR
Text: as §1, §2

factor Xa = factor Xa (Homo sapiens, UniProt P00742); test: in vitro factor Xa inhibition, substrate Boc-Ile-Glu-Gly-Arg-7-amido-4-methylcoumalin; format: biochemical; settings: 0.2 M Tris-HCl, 0.02 M CaCl2, 0.005% Triton X-100, pH 8.0, 25°C, 20 minutes
Chain of factor Xa (P00742 235-488 limits assumed): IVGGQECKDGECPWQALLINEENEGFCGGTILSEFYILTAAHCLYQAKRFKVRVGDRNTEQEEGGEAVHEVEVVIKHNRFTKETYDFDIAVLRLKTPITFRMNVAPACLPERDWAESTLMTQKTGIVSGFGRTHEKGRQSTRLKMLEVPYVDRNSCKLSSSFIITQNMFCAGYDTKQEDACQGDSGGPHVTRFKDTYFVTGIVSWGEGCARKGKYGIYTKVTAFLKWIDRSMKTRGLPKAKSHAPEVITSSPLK
Chain of factor Xa (P00742 41-179 partner limits assumed): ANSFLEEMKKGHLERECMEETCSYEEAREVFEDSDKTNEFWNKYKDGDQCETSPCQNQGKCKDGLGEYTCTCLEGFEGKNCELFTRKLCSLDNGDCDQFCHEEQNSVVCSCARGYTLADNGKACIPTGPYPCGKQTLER

male rats of Wistar line = test: caerulein-induced acute pancreatitis edema, prevention by oral administration; format: in vivo; settings: for Serum amylase / % Pancreas wt.: 15 minutes before caerulein (40 µg/kg i.p. twice); for Serum amylase: blood 6 hours after second caerulein; for % Pancreas wt.: pancreas wet weight to body weight, 6 hours after second caerulein
Description: […] Experiments were started at eight o'clock in the morning, with the animals in each group under satiation conditions. After measuring their body weights, caerulein pancreatitis was prepared by intraperitoneal administration of caerulein (mfd. by Kyowa Hakko K.K.) (40 μg/kg) twice at one hour interval. Six hours after the second administration, each rat was subjected to laparotomy to collect blood from the abdominal aorta and to excise the pancreas. […] Wet weight of the excised pancreas was measured and its ratio to the body weight was calculated. As a comparative example, the same process was repeated except that the inventive compound was replaced by the compound used in Pharmacological Trial 1 as Comparative Example 1, a compound which has been disclosed in JP-A-51-138642.

thrombin = thrombin (Homo sapiens, UniProt P00734); test: in vitro thrombin inhibition, substrate Boc-Val-Pro-Arg-7-amido-4-methylcoumalin; format: biochemical; settings: 0.2 M Tris-HCl, 0.02 M CaCl2, 0.005% Triton X-100, pH 8.0, 25°C, 20 minutes
[1] = 100 mg/kg oral, caerulein alone 817 ± 103
[2] = 100 mg/kg oral, caerulein alone 0.88 ± 0.07
[3] = 0.2 M Tris-HCl, 0.02 M CaCl2, 0.005% Triton X-100, pH 8.0, 25°C, 20 minutes

SMILES	IC50 (trypsin)	IC50 (plasmin)	IC50 (factor Xa)	Serum amylase (male rats of Wistar line; [1])	% Pancreas wt. (male rats of Wistar line; [2])	histological observation of the pancreas (pancreatitis-specific signs) (male rats of Wistar line; rat group of 100 mg oral administration, caerulein pancreatitis)	IC50 (thrombin)	IC50 (plasmin; [3])	Serum amylase (male rats of Wistar line; 10 mg/kg oral, caerulein alone 817 ± 103, no treatment 134 ± 11)	% Pancreas wt. (male rats of Wistar line; 10 mg/kg oral, caerulein alone 0.88 ± 0.07, no treatment 0.38 ± 0.06)	Serum amylase (male rats of Wistar line; 50 mg/kg oral, caerulein alone 817 ± 103)	% Pancreas wt. (male rats of Wistar line; 50 mg/kg oral, caerulein alone 0.88 ± 0.07)	histological observation of the pancreas (male rats of Wistar line; rat groups of 10, 50 and 100 mg oral doses, caerulein pancreatitis)
CN(C)C(=O)COC(=O)Cc1ccc(OC(=O)c2ccc(NC(=N)N)cc2)cc1 [Comp. Ex. 1, reference compound]	0.025 µM	0.12 µM	56 µM	216 ± 7 IU/ml	0.47 ± 0.09%	decrease in the pancreatitis-specific signs, but the reducing effects were inferior to those of Compound 39	–	–	–	–	–	–	–
CC1(C(=O)Oc2cc(Cl)cc(OC(=O)c3ccc(NC(=N)N)cc3)c2)CC1 [Compound 26, 3-chloro-5-(1-methylcyclopropylcarbonyloxy)phenyl 4-guanidinobenzoate methanesulfonic acid salt]	0.00025 µM	–	0.34 µM	–	–	–	0.069 µM	0.015 µM	–	–	–	–	–
N=C(N)Nc1ccc(C(=O)Oc2cccc(OC(F)(F)F)c2)cc1 [Compound 2, 3-trifluoromethoxyphenyl 4-guanidinobenzoate]	0.00017 µM	–	0.43 µM	–	–	–	0.077 µM	0.043 µM	–	–	–	–	–
N=C(N)Nc1ccc(C(=O)Oc2ccc(OC(F)(F)F)cc2)cc1 [Compound 3, 4-trifluoromethoxyphenyl 4-guanidinobenzoate]	0.00084 µM	–	0.44 µM	–	–	–	0.039 µM	0.018 µM	–	–	–	–	–
CS(=O)(=O)O.N=C(N)Nc1ccc(C(=O)Oc2cc(Cl)cc(OS(=O)(=O)C=Cc3ccccc3)c2)cc1 [Compound 39, 3-chloro-5-(β-styrenesulfonyloxy)phenyl 4-guanidinobenzoate methanesulfonic acid salt]	0.00036 µM	–	0.16 µM	99 ± 17 IU/ml	0.39 ± 0.06%	–	0.021 µM	0.012 µM	556 ± 31 IU/ml	0.99 ± 0.16%	362 ± 15 IU/ml	0.66 ± 0.04%	no evident appearance of vacuoles inside the acinic cells, and the appearance of interstitial edema was almost negligible
N=C(N)Nc1ccc(C(=O)Oc2cc(Cl)cc(OC(=O)C3CCCCC3)c2)cc1 [Compound 31, 3-chloro-5-cyclohexylcarbonyloxyphenyl 4-guanidinobenzoate]	0.00047 µM	–	3.6 µM	–	–	–	0.58 µM	0.01 µM	–	–	–	–	–
CON=C(C)c1cccc(OC(=O)c2ccc(NC(=N)N)cc2)c1 [Compound 10, 3-(1-methoxyiminoethyl)phenyl 4-guanidinobenzoate]	0.00052 µM	–	2.5 µM	–	–	–	0.14 µM	0.063 µM	–	–	–	–	–
N=C(N)Nc1ccc(C(=O)Oc2cc(Cl)cc(Cl)c2)cc1 [Comp. Ex. 2, reference compound]	0.0095 µM	–	8.5 µM	–	–	–	0.88 µM	0.09 µM	–	–	–	–	–
